Reference: US20180243190A1, “ACTIVATORS OF NRF2-DEPENDENT PHOTOPROTECTION AND RELATED USES THEREOF” (THE ARIZONA BOARD OF REGENTS ON BEHALF OF THE UNIVERSITY OF …, priority 2015, published 2018)

Assays:
[1] = tested on: NRF2; assay: Cell-based NRF2 ubiquitination assay; parameters: species or system human; conditions: HaCaT, bixin 40 μM or SF 5 μM with MG132 10 μM, 4 h
Experimental: In order to test if bixin-based NRF2 activation occurs through inhibition of KEAP1-mediated ubiquitination, a cell-based ubiquitination assay was performed in HaCaT cells cotransfected with expression vectors for NRF2 and HA-tagged ubiquitin (HA-Ub) (FIG. 3F). To this end, cells were either exposed to bixin (40 μM) or sulforaphane (SF; 5 μM, positive control) or left untreated, combined with proteasome inhibition (MG132; 10 μM, 4 h).
Experiments were performed according to previously published procedures. Cells were harvested in sample buffer (50 mM Tris-HCl [pH 6.8], 2% sodium dodecyl sulfate (SDS), 10% glycerol, 100 mM dithiothreitol (DTT), and 0.1% bromophenol blue), boiled and sonicated. Total cell lysates were resolved by SDS-PAGE and subjected to immunoblot analyses with the indicated antibodies. For the ubiquitination assay, cells were cotransfected with expression vectors for NRF2 and HA-tagged ubiquitin (HA-Ub). Cells were left untreated or treated with either 5 μM sulforaphane (SF) or 40 μM bixin along with 10 μM MG132 for 4 h. Cells were harvested in buffer containing 2% SDS, 150 mM NaCl, 10 mM Tris-HCl (pH 8.0), and 1 mM DTT and boiled immediately. […] The relative intensity of the bands was quantified using the ChemiDoc CRS gel documentation system and Quantity One software (BioRad).

[2] = target: T1, KEAP1 wild type (KEAP1-WT) (Homo sapiens, UniProt Q14145); format: cell-based; conditions: SF 5 μM, As 5 μM, bixin 40 μM; 16 h
T1 construct: expressed in transfected cells; host or cells: HaCaT human keratinocytes
Text: (§1) Since it has been shown previously that NRF2 activation by canonical inducers (including SF and tBHQ) depends on C (Cys)-151, a critical cysteine residue in KEAP1, the mechanistic involvement of KEAP1-C151 bixin-based NRF2 activation was examined. HaCaT cells were cotransfected with expression vectors for either KEAP1 wild type (KEAP1-WT) or a mutant KEAP1 (KEAP1-C151S; Cys-151 mutated to serine) along with ARE-firefly luciferase and Renilla luciferase reporters to assess NRF2 transcriptional activity (FIG. 3G). After exposure to SF (5 μM), As (sodium arsenite; 5 μM), or bixin (40 μM; all 16 h), NRF2 transcriptional activity was enhanced by all treatments in KEAP1-WT cells, whereas NRF2 activation by SF or bixin was abolished in KEAP1-C151S cells.
(§2) Transfection of cDNA was performed using Lipofectamine 3000 (Invitrogen) according to the manufacturer's instructions. Activation of NRF2 transcriptional activity was performed as previously published. Briefly, HaCaT cells were cotransfected with expression vectors for either KEAP1 wild type (KEAP1-WT) or KEAP1 with a mutation that generates a protein that contains a serine residue instead of a cysteine (KEAP1-C151S), along with NQO1-ARE firefly luciferase and Renilla luciferase reporters. At 24 h post-transfection, cells were left untreated or treated with SF (5 μM), As (5 μM), or bixin (40 μM) for 16 h. The cells were then lysed for analysis of the reporter gene activity using the Promega dual-luciferase reporter gene assay system.

[3] = target: T2, KEAP1-C151S (Homo sapiens, UniProt Q14145, C151S); format: cell-based; conditions: SF 5 μM, As 5 μM, bixin 40 μM; 16 h
T2 construct: expressed in transfected cells; host or cells: HaCaT human keratinocytes
Text: as §1, §2

[4] = tested on: HaCaT keratinocytes; parameters: cytoprotection against 1O2-induced oxidative stress: dose or concentration left out as unconfirmed; conditions: HaCaT
Experimental: Photodynamic induction of intracellular oxidative stress and its suppression by bixin pretreatment was analyzed by flow cytometry using 2′,7′-dichlorodihydrofluorescein diacetate (DCFH-DA) as a sensitive non-fluorescent precursor dye according to a published standard procedure [14]. HaCaT keratinocytes were pretreated with bixin (1 or 24 h) and then exposed to singlet oxygen generated by dye-sensitization as described earlier [14, 44]. In brief, toluidine blue 0 (TB) photosensitization was achieved using a ‘Sylvania 15 W Cool White’ light tube delivering visible light at an irradiance of 4.29 mW/cm^2. The irradiance in the visible region (400-700 nm) was determined using a spectroradiometer, Model 754 from Optronic Laboratories (Orlando, Fla.). Cells received visible radiation at a distance of 50 mm from the source through the polystyrene lids of cell culture dishes. For ^1O2 exposure, cells were washed with PBS and immediately exposed to the combined action of visible light (0.3 J/cm^2) and TB (3.3 μM) in PBS. Following 5 min incubation in the dark after irradiation, cells were washed with PBS. Cells were then incubated for 60 min in the dark (37° C., 5% CO2) with culture medium containing DCFH-DA (5 μg/mL final concentration). Cells were then washed with PBS, harvested by trypsinization, resuspended in 300 μl PBS, and analyzed by flow cytometry.

T1 sequence (Q14145 whole entry, species assumed): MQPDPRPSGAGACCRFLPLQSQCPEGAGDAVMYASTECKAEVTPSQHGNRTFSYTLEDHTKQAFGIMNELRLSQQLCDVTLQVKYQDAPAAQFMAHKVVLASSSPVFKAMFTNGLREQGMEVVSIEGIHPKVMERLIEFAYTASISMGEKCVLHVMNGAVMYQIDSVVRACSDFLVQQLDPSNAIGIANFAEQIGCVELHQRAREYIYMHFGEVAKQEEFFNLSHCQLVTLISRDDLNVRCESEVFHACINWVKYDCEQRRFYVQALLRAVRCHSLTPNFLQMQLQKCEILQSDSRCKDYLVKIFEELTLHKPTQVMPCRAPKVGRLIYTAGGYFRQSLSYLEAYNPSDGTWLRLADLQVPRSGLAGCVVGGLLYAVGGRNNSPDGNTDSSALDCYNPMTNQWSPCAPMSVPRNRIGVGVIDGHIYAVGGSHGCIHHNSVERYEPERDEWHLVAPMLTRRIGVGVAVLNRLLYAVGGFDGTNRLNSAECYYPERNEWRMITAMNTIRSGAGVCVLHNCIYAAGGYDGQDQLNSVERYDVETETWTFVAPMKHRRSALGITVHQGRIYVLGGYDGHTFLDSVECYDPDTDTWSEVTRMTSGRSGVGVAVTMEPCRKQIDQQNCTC
T2 sequence (Q14145 whole entry C151S): as the sequence (Q14145 whole entry, species assumed) above, with C151S counted along it

Row | SMILES | NRF2-ubiquitination versus untreated control [1] | NRF2 transcriptional activity in KEAP1-WT cells [2] | NRF2 activation in KEAP1-C151S cells [3] | cytoprotection against 1O2-induced oxidative stress [4]
1 | C[S+]([O-])CCCCN=C=S (stereo not drawn) [SF, sulforaphane] | inhibitory effects | enhanced | abolished | 
2 | [N-]=[N+]=[N-].[Na+] [NaN3, reference compound] |  |  |  | active only if present during visible light-driven dye sensitization
3 | O=[As]O [As, sodium arsenite] |  | enhanced | equally effective | 
